Source: US6440984B1, “Use of aryl-substituted pyrimidines as insecticidal and acaricidal agents” (BASF Aktiengesellschaft, priority 1998, dated 2002)

Experiments:
[1] = test system: Aphis Fabae, Mixed Instar, Bean Aphid (BA); experiment: Bean aphid (BA) foliar spray test, mortality after 2 days; type: in vivo; details: rating scale
Description: (§1) Test solutions are prepared by dissolving the test compound in a 35% acetone in water mixture to give a concentration of 10,000 ppm. Subsequent dilutions are made with water as needed.
Aphis Fabae, Mixed Instar, Bean Aphid (BA)
(§2) Pots containing single nasturtium plants (Tropaeolum sp.) about 5 cm tall are infested with about 100-200 aphids one day before the test. Each pot is sprayed with the test solution for 2 revolutions of a 4 rpm turntable in a hood. The spray is directed to give complete coverage of the plants and aphids. The sprayed pots are set on their sides on white trays and held for 2 days, following which mortality estimates are made. Essentially the same method is used with respect to cotton aphid (CA).

[2] = test system: Spodoptera Eridania, 3rd Instar Larvae, Southern Armyworm (SAW); experiment: Southern armyworm (SAW) leaf-dip test, observations at 5 days; type: in vivo; details: Southern Army Worm, rating scale
Description: as §1
Spodoptera Eridania, 3rd Instar Larvae, Southern Armyworm (SAW)
A Sieva lima bean leaf expanded to 7-8 cm in length is dipped in the test solution with agitation for 3 seconds and allowed to dry in a hood. The leaf is then placed in a 100×10 mm petri dish containing a damp filter paper on the bottom and ten 3rd instar caterpillars. At 5 days, observations are made of mortality, reduced feeding, or any interference with normal molting.

[3] = test system: Tetranychus Urticae (OP-resistant strain), 2-spotted Spider Mite (TSM); experiment: Two-spotted spider mite (TSM) plant-dip test, mortality after 2 days; type: in vivo; details: rating scale
Description: as §1
Tetranychus Urticae (OP-resistant strain), 2-spotted Spider Mite (TSM)
Sieva lima bean plants with primary leaves expanded to 7-8 cm are selected and cut back to one plant per pot. A small piece is cut from an infested leaf taken from the main colony and placed on each leaf of the test plants. This is done about 2 hours before treatment to allow the mites to move over to the test plant to lay eggs. The size of the cut, infested leaf is varied to obtain about 100 mites per leaf. At the time of test treatment, the piece of leaf used to transfer the mites is removed and discarded. The newly-infested plants are dipped in the test solution for 3 seconds with agitation and set in the hood to dry. After 2 days, one leaf is removed and mortality counts are made.

[4] = test system: Diabrotica Virgifera Virgifera Leconte, 3rd Instar Western Corn Rootworm (WCR); experiment: Western corn rootworm (WCR) soil test, mortality at 5 days; type: in vivo; details: rating scale
Description: Diabrotica Virgifera Virgifera Leconte, 3rd Instar Western Corn Rootworm (WCR) One cc of fine talc is placed in a 30 mL wide-mouth screw-top glass jar. One mL of the appropriate acetone test solution is pipetted onto the talc so as to provide 1.25 mg of active ingredient per jar. The jars are set under a gentle air flow until the acetone is evaporated. The dried talc is loosened, 1 cc of millet seed is added to serve as food for the insects and 25 mL of moist soil is added to each jar. The jar is capped and the contents thoroughly mixed mechanically. Following this, ten 3rd instar rootworms are added to each jar and the jars are loosely capped to allow air exchange for the larvae. The treatments are held for 5 days when mortality counts are made. Missing larvae are presumed dead, since they decompose rapidly and can not be found. The concentrations of active ingredient used in this test correspond approximately to 50 kg/ha.

Cotton Aphid (CA) = experiment: Cotton aphid (CA) foliar spray test, essentially the bean aphid method; type: in vivo; details: rating scale
Description: as §1, §2

Structure (SMILES)	BA AD-FOLIAR 300 (ppm) [1]	TSM AD-FOLIAR 300 (ppm) [3]	WCR 2^ND-SOIL 50 (ppm) [4]	CA-FOLIAR 300 (ppm) (Cotton Aphid (CA))	also measured
Fc1ccc(Oc2nccc(-c3cccc(OC(F)(F)F)c3)n2)cc1C(F)(F)F [Compound 37]	A (A 0-45% kill)	A (A 0-45% kill)	B (B 45-75% kill)	–	SAW 2^ND-FOLIAR 1000 (ppm) [2]: C (C 76-100% kill)
FC(F)(F)c1cccc(Oc2nccc(-c3ccccc3)n2)c1 [Compound 5]	A (A 0-45% kill)	B (B 45-75% kill)	C (C 76-100% kill)	–	SAW 2^ND-FOLIAR 1000 (ppm) [2]: A (A 0-45% kill)
Fc1ccc(Oc2ncc(Cl)c(-c3ccc(Cl)c(Cl)c3)n2)cc1C(F)(F)F [Compound 93, 2-(3-Trifluoromethyl-4-fluorophenoxy)-4-(3,4-dichlorophenyl)-5-chloropyrimidine]	–	–	–	–	melting point: 90 to 92 °C
Fc1ccc(Oc2nccc(-c3cccc(Cl)c3)n2)cc1C(F)(F)F [Compound 66]	–	A (A 0-45% kill)	C (C 76-100% kill)	A (A 0-45% kill)	–
Fc1ccc(-c2ccnc(Oc3cccc(C(F)(F)F)c3)n2)cc1C(F)(F)F [Compound 71]	C (C 76-100% kill)	A (A 0-45% kill)	–	B (B 45-75% kill)	–
Fc1cccc(Oc2nccc(-c3cc(Cl)c(Cl)c(C(F)(F)F)c3)n2)c1 [Compound 64]	–	A (A 0-45% kill)	C (C 76-100% kill)	A (A 0-45% kill)	–
Fc1ccc(-c2ccnc(Oc3ccc(F)c(C(F)(F)F)c3)n2)cc1 [Compound 22, 2-(3-Trifluoromethyl-4-fluorophenoxy)-4-(4-fluorophenyl)pyrimidine]	–	–	–	–	pest or weed control at 300 ppm ([1]; Aphis fabae, 48 h, read-out: BA AD-FOLIAR 300 (ppm)): 45 to 75%; pest or weed control at 1000 ppm ([2]; Spodoptera eridania, foliar, 120 h, read-out: SAW 2^ND-FOLIAR 1000 (ppm)): 0 to 45%; pest or weed control at 300 ppm ([3]; Tetranychus urticae, 48 h, read-out: TSM AD-FOLIAR 300 (ppm)): 0 to 45%; pest or weed control at 50 ppm ([4]; Diabrotica virgifera, 120 h, read-out: WCR 2^ND-SOIL 50 (ppm)): 76 to 100%
FC(F)(F)c1cccc(Oc2nccc(-c3cccc(Cl)c3)n2)c1 [Compound 67]	–	A (A 0-45% kill)	–	C (C 76-100% kill)	–
Fc1cc(-c2ccnc(Oc3ccc(F)c(C(F)(F)F)c3)n2)ccc1Cl [Compound 78]	–	B (B 45-75% kill)	–	B (B 45-75% kill)	–
Fc1cccc(-c2ccnc(Oc3ccc(F)c(C(F)(F)F)c3)n2)c1 [Compound 68]	–	B (B 45-75% kill)	–	C (C 76-100% kill)	–
FC(F)(F)c1cc(-c2ccnc(Oc3ccccc3)n2)cc(Cl)c1Cl [Compound 63]	A (A 0-45% kill)	A (A 0-45% kill)	–	C (C 76-100% kill)	–
Fc1ccc(Oc2nccc(-c3ccc(OC(F)(F)F)cc3)n2)cc1Cl [Compound 55]	A (A 0-45% kill)	A (A 0-45% kill)	C (C 76-100% kill)	–	SAW 2^ND-FOLIAR 1000 (ppm) [2]: A (A 0-45% kill)
